{"source": "patent US10329281B2", "about": "“Polymorphs and process for the preparation of quinazolinyl derivatives” (HETERO LABS LTD, priority 2015, dated 2019)", "key": {"[1]": {"test": "Stability data of Afatinib dimaleate crystalline Form H3 on storage (PXRD, impurity, water content)", "format": "physicochemical", "set-up": "Impurity: unit not given here"}, "[2]": {"test": "Stability data of Afatinib dimaleate crystalline Form H3 on storage (PXRD, impurity, water content)", "format": "physicochemical", "protocol": "X-ray powder diffraction spectrum was measured on a bruker axs D8 advance X-ray powder diffractometer having a copper-a radiation. Adequate sample was gently flattered on a sample holder and scanned from 2 to 50 degrees two-theta, at 0.02 increment and scan speed of 0.2 Sec/Step. The sample was simply placed on the sample holder. The sample was rotated at 30 rpm at a voltage 40 KV and current 35 mA."}, "[3]": {"settings": "25 ± 2° C./RH 60 ± 5%, 1st Month"}, "[4]": {"settings": "25 ± 2° C./RH 60 ± 5%, 2nd Month"}, "[5]": {"settings": "25 ± 2° C./RH 60 ± 5%, 3rd Month"}}, "data": [{"smiles": "CN(C)C/C=C/C(=O)Nc1cc2c(Nc3ccc(F)c(Cl)c3)ncnc2cc1O[C@H]1CCOC1", "note": "[Afatinib dimaleate crystalline Form H3, 2-Butenamide, N-[4-[(3-Chloro-4-fluorophenyl)amino]-7-[[(3S)-tetrahydro-3-furanyl]oxy]-6-quinazolinyl]-4(dimethylamino),(2E)-]", "values": [{"measurement": "Impurity", "setting": "[1]; 5 ± 3° C., 1st Month", "result": 0.22}, {"measurement": "Water Content", "setting": "[1]; 5 ± 3° C., 1st Month", "result": 1.34, "unit": "%"}, {"measurement": "Impurity", "setting": "[1]; 5 ± 3° C., 2nd Month", "result": 0.26}, {"measurement": "PXRD", "setting": "[1]; 5 ± 3° C., 2nd Month", "result": "Form H3"}, {"measurement": "Water Content", "setting": "[1]; 5 ± 3° C., 2nd Month", "result": 1.4, "unit": "%"}, {"measurement": "Impurity", "setting": "[1]; 5 ± 3° C., 3rd Month", "result": 0.27}, {"measurement": "Water Content", "setting": "[1]; 5 ± 3° C., 3rd Month", "result": 1.26, "unit": "%"}, {"measurement": "Impurity", "setting": "[1]; 5 ± 3° C., Initial", "result": 0.22}, {"measurement": "Water Content", "setting": "[1]; 5 ± 3° C., Initial", "result": 1, "unit": "%"}, {"measurement": "Impurity", "setting": "[1]; [3]", "result": 0.22}, {"measurement": "PXRD", "setting": "[1]; [3]", "result": "Form H3"}, {"measurement": "Water Content", "setting": "[1]; [3]", "result": 1.18, "unit": "%"}, {"measurement": "Impurity", "setting": "[1]; [4]", "result": 0.38}, {"measurement": "Water Content", "setting": "[1]; [4]", "result": 1.35, "unit": "%"}, {"measurement": "Impurity", "setting": "[1]; [5]", "result": 0.43}, {"measurement": "PXRD", "setting": "[1]; [5]", "result": "Form H3"}, {"measurement": "Water Content", "setting": "[1]; [5]", "result": 1.56, "unit": "%"}, {"measurement": "Impurity", "setting": "[1]; 25 ± 2° C./RH 60 ± 5%, Initial", "result": 0.22}, {"measurement": "PXRD", "setting": "[1]; 25 ± 2° C./RH 60 ± 5%, Initial", "result": "Form H3"}, {"measurement": "Water Content", "setting": "[1]; 25 ± 2° C./RH 60 ± 5%, Initial", "result": 1, "unit": "%"}, {"measurement": "stability", "setting": "[1]; at 5±3° C. and 25±2° C./RH (Relative humidity) 60±5%", "result": "stable"}, {"measurement": "PXRD", "setting": "[2]; 5 ± 3° C., 1st Month", "result": "Form H3"}, {"measurement": "PXRD", "setting": "[2]; 5 ± 3° C., 3rd Month", "result": "Form H3"}, {"measurement": "PXRD", "setting": "[2]; 5 ± 3° C., Initial", "result": "Form H3"}, {"measurement": "PXRD", "setting": "[2]; [4]", "result": "Form H3"}]}]}
